# Results taken from patent US11583529B2, “Treatment of inflammatory disorders” (Aldeyra Therapeutics, Inc., priority 2017, dated 2023).
# System: dextran sulfate sodium (DSS)-induced acute ulcerative colitis (UC)
# Assay: 7-Day DSS-induced acute ulcerative colitis model
# Type: in vivo, female Swiss Webster mice
# [1] = 100 mg/kg IP QD, Days 0 through 6, vs IP vehicle
# [2] = 200 mg/kg PO BID, Days 0 through 6, vs PO vehicle
# [3] = 200 mg/kg PO BID, Days −3 through 6, vs PO vehicle
smiles,measurement,setting,value
CC(C)(O)c1nc2ccccc2cc1N [Compound I-6],"Colon lengths, increase in the direction of normal",[1],56%
same,"Colon weight-to-length ratios, reduction in the direction of normal",[1],35%
same,"DAI score of occult/gross blood in stool, AUC",[1],significantly lower
same,"DAI score of stool consistency, area under the curve (AUC)",[1],significantly lower
same,"DAI summed scores, AUC",[1],significantly lower
same,"full colon PMN percentages, reduction",[1],53%
same,"full colon edema, reduction",[1],53%
same,"full colon erosion, reduction",[1],91%
same,"full colon gland loss, reduction",[1],82%
same,"full colon inflammation, reduction",[1],56%
same,"full colon lymphoid aggregate counts, reduction",[1],113%
same,"full colon neutrophil scores, reduction",[1],73%
same,"full colon summed scores, reduction",[1],68%
same,"proximal colon gland loss, reduction",[1],57%
same,"proximal colon inflammation, reduction",[1],32%
same,"proximal colon lymphoid aggregate counts, reduction",[1],107%
same,"proximal colon summed scores, reduction",[1],36%
same,Body weight loss,"100 mg/kg IP QD, Days 0 through 6, vs IP vehicle (SBECD)",significantly inhibited
same,Body weights,"200 mg/kg PO BID (Groups 5, 6, 7, 8, 9, and 10), vs PO vehicle",did not differ significantly
same,"full colon edema, reduction",[2],44%
same,"proximal colon edema, reduction",[2],48%
same,"proximal colon inflammation, reduction",[2],36%
same,"full colon edema, reduction",[3],58%
same,"proximal colon edema, reduction",[3],41%
same,"proximal colon erosion, reduction",[3],75%
same,DAI stool consistency scores,"Day 2, 100 mg/kg IP QD, Days 0 through 6, vs IP vehicle",significantly reduced
same,DAI summed scores,"Day 6, 100 mg/kg IP QD, Days 0 through 6, vs IP vehicle",significantly reduced
same,DAI occult/gross blood in stool scores,"Days 4 and 6, 100 mg/kg IP QD, Days 0 through 6, vs IP vehicle",significantly reduced
